{"source": "ChEMBL document CHEMBL4673388", "about": "“Enhancing Antimicrobial Peptide Potency through Multivalent Presentation on Coiled-Coil Nanofibrils” (ACS Med Chem Lett, 2021)", "key": {"HEK293 [1]": {"system": "HEK293", "assay": "Cytotoxicity against human HEK293 cells up to 90 ug/ml measured after 48 hrs compound conjugated on alpha-helical coiled-coil FF03 peptide by CCK8 assay", "type": "cell-based", "details": "hek293, 48 h, dose <=90 µg/ml"}, "[2]": {"assay": "Hemolytic activity in human red blood cells at 100 ug/ml incubated for 45 mins compound conjugated on alpha-helical colied-coil FF03 peptide", "type": "ADME, cell-based, Erythrocyte", "details": "red blood cells (erythrocytes), at 100 µg/mL, read-out: Activity"}, "Staphylococcus aureus [3]": {"system": "Staphylococcus aureus", "assay": "Antibacterial activity against methicillin-resistant Staphylococcus aureus ATCC 43300 assessed as inhibition of bacterial growth incubated for 16 to 20 hrs by microdilution method", "type": "functional", "details": "time 16-20 hrs"}, "Staphylococcus aureus [4]": {"system": "Staphylococcus aureus", "assay": "Bactericidal activity against methicillin-resistant Staphylococcus aureus ATCC 43300 assessed as reduction in bacterial growth at MIC compound conjugated on alpha-helical coiled-coil FF03 peptide measured within 5 hrs by time kill assay", "type": "functional, organism-based", "details": "time hrs <=5"}, "MCF7 [5]": {"system": "MCF7", "assay": "Cytotoxicity against human MCF7 cells up to 90 ug/ml measured after 48 hrs by CCK8 assay", "type": "cell-based", "details": "mcf7, 48 h, dose <=90 µg/ml"}, "MCF7 [6]": {"system": "MCF7", "assay": "Cytotoxicity against human MCF7 cells up to 90 ug/ml measured after 48 hrs compound conjugated on alpha-helical coiled-coil FF03 peptide by CCK8 assay", "type": "cell-based", "details": "mcf7, 48 h, dose <=90 µg/ml"}, "Pseudomonas aeruginosa [7]": {"system": "Pseudomonas aeruginosa", "assay": "Antibacterial activity against Pseudomonas aeruginosa ATCC 15442 assessed as inhibition of bacterial growth incubated for 16 to 20 hrs compound conjugated on alpha-helical coiled-coil FF03 peptide by microdilution method", "type": "functional", "details": "time 16-20 hrs"}, "Staphylococcus aureus [8]": {"system": "Staphylococcus aureus", "assay": "Antibacterial activity against Staphylococcus aureus ATCC 25923 assessed as inhibition of bacterial growth incubated for 16 to 20 hrs by microdilution method", "type": "functional", "details": "time 16-20 hrs"}, "Pseudomonas aeruginosa [9]": {"system": "Pseudomonas aeruginosa", "assay": "Antibacterial activity against Pseudomonas aeruginosa ATCC 15442 assessed as inhibition of bacterial growth incubated for 16 to 20 hrs by microdilution method", "type": "functional", "details": "time 16-20 hrs"}, "HEK293 [10]": {"system": "HEK293", "assay": "Cytotoxicity against human HEK293 cells up to 90 ug/ml measured after 48 hrs by CCK8 assay", "type": "cell-based", "details": "hek293, 48 h, dose <=90 µg/ml"}, "Escherichia coli [11]": {"system": "Escherichia coli", "assay": "Antibacterial activity against Escherichia coli ATCC 25922 assessed as inhibition of bacterial growth incubated for 16 to 20 hrs compound conjugated on alpha-helical coiled-coil FF03 peptide by microdilution method", "type": "functional", "details": "time 16-20 hrs"}, "Staphylococcus aureus [12]": {"system": "Staphylococcus aureus", "assay": "Bactericidal activity against methicillin-resistant Staphylococcus aureus ATCC 43300 assessed as reduction in bacterial growth at MIC measured for 25 hrs by time kill assay", "type": "functional, organism-based"}, "Escherichia coli [13]": {"system": "Escherichia coli", "assay": "Antibacterial activity against Escherichia coli ATCC 25922 assessed as inhibition of bacterial growth incubated for 16 to 20 hrs by microdilution method", "type": "functional", "details": "time 16-20 hrs"}, "[14]": {"assay": "Hemolytic activity in human red blood cells at 100 ug/ml incubated for 45 mins", "type": "ADME, cell-based, Erythrocyte", "details": "red blood cells (erythrocytes), at 100 µg/mL, read-out: Activity"}, "Staphylococcus aureus [15]": {"system": "Staphylococcus aureus", "assay": "Antibacterial activity against methicillin-resistant Staphylococcus aureus ATCC 43300 assessed as inhibition of bacterial growth incubated for 16 to 20 hrs compound conjugated on alpha-helical coiled-coil FF03 peptide by microdilution method", "type": "functional", "details": "time 16-20 hrs"}, "Cell membrane": {"system": "Cell membrane", "assay": "Disruption of cell membrane in methicillin-resistant Staphylococcus aureus ATCC 43300 assessed as complete rupture of bacterial cell surface at 9 ug/ml incubated for 3 hrs by scanning electron microscopy", "type": "subcellular", "details": "dose 9.0 µg/ml"}, "Staphylococcus aureus [16]": {"system": "Staphylococcus aureus", "assay": "Antibacterial activity against Staphylococcus aureus ATCC 25923 assessed as inhibition of bacterial growth incubated for 16 to 20 hrs compound conjugated on alpha-helical coiled-coil FF03 peptide by microdilution method", "type": "functional", "details": "time 16-20 hrs"}}, "note": "Calls of active or inactive are those of the source. The rule behind the calls is not given here. Residues, ends and D or L forms follow the SMILES beside them."}
{"compound": "CC(C)C[C@H](NC(=O)[C@@H](N)CCCNC(=N)N)C(=O)N1CCC[C@H]1C(=O)N[C@@H](Cc1c[nH]c2ccccc12)C(=O)N[C@@H](CCCNC(=N)N)C(=O)N[C@@H](Cc1c[nH]c2ccccc12)C(=O)N1CCC[C@H]1C(=O)N[C@@H](CCCNC(=N)N)C(=O)N[C@@H](CCCNC(=N)N)C(=O)N1CCC[C@H]1C(=O)N[C@@H](Cc1c[nH]c2ccccc12)C(=O)N[C@@H](CCCNC(=N)N)C(=O)N[C@@H](CCCNC(=N)N)C(=O)O", "note": "(H-RLPWRWPRRPWRR-OH)", "values": [{"measurement": "Activity", "setting": "HEK293 [1]", "value": "Non-Toxic"}, {"measurement": "hemolysis at 0.75 h, 100 ug/ml", "setting": "[2]", "value": "< 15", "unit": "%"}, {"measurement": "MIC", "setting": "Staphylococcus aureus [3]", "value": 130, "unit": "µM"}, {"measurement": "Activity", "setting": "Staphylococcus aureus [4]", "value": "Active"}, {"measurement": "Activity", "setting": "MCF7 [5]", "value": "Non-Toxic"}, {"measurement": "Activity", "setting": "MCF7 [6]", "value": "Non-Toxic"}, {"measurement": "MIC", "setting": "Pseudomonas aeruginosa [7]", "value": 1.36, "unit": "µM"}, {"measurement": "MIC", "setting": "Staphylococcus aureus [8]", "value": 65.2, "unit": "µM"}, {"measurement": "MIC", "setting": "Pseudomonas aeruginosa [9]", "value": 65.2, "unit": "µM"}, {"measurement": "Activity", "setting": "HEK293 [10]", "value": "Non-Toxic"}, {"measurement": "MIC", "setting": "Escherichia coli [11]", "value": 2.34, "unit": "µM"}, {"measurement": "Activity", "setting": "Staphylococcus aureus [12]", "value": "Active"}, {"measurement": "MIC", "setting": "Escherichia coli [13]", "value": 130, "unit": "µM"}, {"measurement": "hemolysis at 0.75 h, 100 ug/ml", "setting": "[14]", "value": "< 15", "unit": "%"}, {"measurement": "MIC", "setting": "Staphylococcus aureus [15]", "value": 1.75, "unit": "µM"}, {"measurement": "Activity", "setting": "Cell membrane", "value": "Active"}, {"measurement": "MIC", "setting": "Staphylococcus aureus [16]", "value": 0.97, "unit": "µM"}]}
{"compound": "CC[C@H]1OC(=O)[C@H](C)[C@@H](O[C@H]2C[C@@](C)(OC)[C@@H](O)[C@H](C)O2)[C@H](C)[C@@H](O[C@@H]2O[C@H](C)C[C@H](N(C)C)[C@H]2O)[C@](C)(O)C[C@@H](C)C(=O)[C@H](C)[C@@H](O)[C@]1(C)O", "note": "[ERYTHROMYCIN]", "values": [{"measurement": "MIC", "setting": "Staphylococcus aureus [3]", "value": "> 128", "unit": "µM"}]}
{"compound": "NC[C@H]1O[C@H](O[C@H]2[C@H](O)[C@@H](O[C@H]3O[C@H](CO)[C@@H](O)[C@H](N)[C@H]3O)[C@H](N)C[C@@H]2N)[C@H](O)[C@@H](O)[C@@H]1O", "note": "[KANAMYCIN]", "values": [{"measurement": "MIC", "setting": "Staphylococcus aureus [3]", "value": "> 128", "unit": "µM"}]}
{"compound": "CC(=O)NC[C@H]1CN(c2ccc(N3CCOCC3)c(F)c2)C(=O)O1", "note": "[LINEZOLID]", "values": [{"measurement": "MIC", "setting": "Staphylococcus aureus [3]", "value": 4, "unit": "µM"}, {"measurement": "MIC", "setting": "Staphylococcus aureus [8]", "value": 1.5, "unit": "µM"}]}
{"compound": "COc1cc(Cc2cnc(N)nc2N)cc(OC)c1OC", "note": "[TRIMETHOPRIM]", "values": [{"measurement": "MIC", "setting": "Staphylococcus aureus [3]", "value": 2, "unit": "µM"}]}
{"compound": "CN[C@H](CC(C)C)C(=O)N[C@H]1C(=O)N[C@@H](CC(N)=O)C(=O)N[C@H]2C(=O)N[C@H]3C(=O)N[C@H](C(=O)N[C@H](C(=O)O)c4cc(O)cc(O)c4-c4cc3ccc4O)[C@H](O)c3ccc(c(Cl)c3)Oc3cc2cc(c3O[C@@H]2O[C@H](CO)[C@@H](O)[C@H](O)[C@H]2O[C@H]2C[C@](C)(N)[C@H](O)[C@H](C)O2)Oc2ccc(cc2Cl)[C@H]1O", "note": "[VANCOMYCIN]", "values": [{"measurement": "MIC", "setting": "Staphylococcus aureus [3]", "value": 0.5, "unit": "µM"}, {"measurement": "MIC", "setting": "Staphylococcus aureus [8]", "value": 1.38, "unit": "µM"}]}
{"compound": "GENTAMICIN", "values": [{"measurement": "MIC", "setting": "Pseudomonas aeruginosa [9]", "value": 1.63, "unit": "µM"}]}
